Results reported in patent publication US20130005678A1, “Methods and Compositions for Treating or Ameliorating Cancer Using Gemcitabine-5'-Elaidate” (CLAVIS PHARMA ASA, priority 2010, published 2013).

Tests used:
[1] = test system: human colon cancer Co6044; assay: Antitumor activity in human colon xenograft Co6044 (intraperitoneal); assay type: in vivo; conditions: intraperitoneally every third day five times
Description: Fragments of human colon cancers Co5776 and Co6044 are implanted subcutaneously in NCR female mice (7-8 mice/group). Gemcitabine (120 mg/kg) and gemcitabine-5′-elaidic acid ester (40 mg/kg) are administered intraperitoneally, every third day for five times.

[2] = test system: A549 human NSCLC; assay: Combination study in vitro, growth inhibition, median effect analysis (A549); assay type: cell-based
Description: The cell lines A549 human NSCLC and WiDr human colon carcinoma are used to determine the combination index and also the effect of Gemcitabine-5′-elaidate on the cell cycle. A sulforhodamine B colorimetric assay is used to determine growth inhibition after 72 hours. Pemetrexed combinations are tested using the MTT assay. Combinations with pemetrexed are also tested in the WiDr-LF cell line, which are WiDr cells cultured under low folate conditions. The IC25 and IC50 values (inhibitory concentrations at 25% or 50%, respectively) are calculated. The IC25 value is used for combinations with serial dilutions of oxaliplatin or docetaxel, and the IC50 value is used for pemetrexed combinations. Median effect analysis is performed.

[3] = test system: A549; assay: Platinum accumulation in DNA (A549); assay type: cell-based, human; conditions: oxaliplatin 200 μM combined with Gemcitabine-5′-elaidate 0.004 μM
Description: The effect on DNA platinum accumulation in DNA after exposure to oxaliplatin and oxaliplatin combined with Gemcitabine-5′-elaidate (oxaliplatin [200 μM] combined with Gemcitabine-5′-elaidate [0.004 μM]) is also determined.

[4] = test system: CEM cells; assay: Intracellular dFdCTP level in CEM cells with or without dipyridamole (HPLC); assay type: cell-based, human
Description: hENT1 can inhibited in vitro by various agents including dipyridamole, NBMPR, and NBI. In order to test whether gemcitabine-5′-elaidate entry into the cells is independent of a nucleoside transporter such as hENT1, dipyridamole is used to block hENT1. The intracellular level of dFdCTP is determined in CEM cells after 60 minutes exposure to either dFdC or gemcitabine-5′-elaidate, with or without the addition of dipyridamole (DP). The compounds are administered at 10 μM, and the triphosphates are determined using HPLC. Deamination is blocked using tetrahydrouridine.

[5] = test system: CEM and CEM-Ara-C/8; assay: Tumor cell killing in vitro in CEM and hENT1-deficient CEM-Ara-C/8 (FIGS. 5A-5B); assay type: cell-based; conditions: CEM vs hENT1-deficient CEM-Ara-C/8
Excerpt: CEM: T-lymphoblastic leukemia cell line. CEM-Ara-C/8: Clonal derivative of CEM with hENT1 transporter deficiency.

[6] = test system: CCRF-CEM human leukemia cell line; assay: Triphosphate accumulation and retention in CCRF-CEM cells; assay type: cell-based
Excerpt: Drugs: Gemcitabine-5′-elaidate was provided by Clavis Pharma (Oslo, Norway), tetra hydro uridine (THU) was from Calbiochem (Merck, Darmstadt, Germany), dipyridamole and ara-C were from Sigma-Aldrich (St. Louis, Mo., USA) and dFdC was from Eli-Lilly (Indianapolis, Ind., USA). The radioactively labeled drugs were obtained from Moravek (Brea, Calif., USA); the drugs were labeled with tritium on the 5-C site of the base. A mix of radioactive and non-radioactive compounds was made for exposure of cells; dFdC and CP-4126 were used at a final concentration of 8.9 μM and a specific activity of 586 and 391 mCi/mmol, respectively.
Cell lines: For the experiments the CCRF-CEM human leukemia cell line and its dCK negative variant (CEM/dCK−) were used. The cell lines were cultured in RPMI medium (BioWhittaker, Verviers, Belgium) supplemented with 10% fetal calf serum (PAA laboratories, Pasching, Austria) and HEPES buffer (BioWhittaker). Of the nucleoside influx transporters, the CEM cell line only expresses the equilibrative nucleoside transporter (hENT) and not the concentrative nucleoside transporter (hCNT). Belt et al. Adv. Enzyme Regul., 1993, 33, 235-52. Dipyridamole (DP) was used to inhibit the influx of the drugs by hENT. In order to get a clean picture, THU was also added to inhibit deamination of ara-C and dFdC.
Triphosphate accumulation: Cells were treated with 1 and 10 μM of dFdC, while for the lipophilic analogs 10 and 100 μM was used. The cells were incubated for 60 minutes and retention of the triphosphates was investigated after 60 and 120 minutes incubation in drug-free medium. Dipyridamole was added to inhibit drug influx by the hENT transporter. After incubation the cell pellet was resuspended in ice-cold PBS and incubated for 20 minutes at 4° C. with 40% trichloroacetic acid. After centrifugation (10,000 g, 10 min, 4° C.) the supernatant was treated with a 2-fold excess of trioctylamine/1,1,2-trichlorotrifluorethane (1:4) and spun down (10,000 g, 1 min) and the aqueous phase was stored at −20° C. until analysis by HPLC on a Whatman Partisphere SAX column (GE healthcare, Chalfont St. Giles, UK) using gradient (dFdC-TP) elution as described earlier. Noordhuis et al., Leuk. Res., 1996, 20, 127-34; Ruiz van Haperen, et al., Biochem. Pharmacol., 1994, 48, 1327-39.

[7] = test system: Co-26 murine colon cancer cells; assay: Antitumor effect in Co-26 liver metastasis model; assay type: in vivo; conditions: single dose 75 mg/kg
Description: Antitumor effect of single dose of gemcitabine-5′-elaidic acid ester or gemcitabine is tested in Balb/C female mice injected with Co-26 murine colon cancer cells in the spleen (a liver metastasis model). […] The activity of gemcitabine is similar.

[8] = test system: P388 leukemia cells; assay: Antitumor effect in P388 murine leukemia model; assay type: in vivo; conditions: B6D2F1 female mice; intraperitoneal; single doses or daily for 10 consecutive days; all tested doses and schedules
[9] = test system: human glioma cells U373; assay: Antitumor activity in human glioma U373 grown intracerebrally; assay type: in vivo
Description: NMRI male mice are inoculated with human glioma cells U373 intracerebrally. The tumors at the injection site (at the surface of the brain), as well as the intracerebral tumors, are evaluated. Gemcitabine-5′-elaidic acid ester is administered intraperitoneally on Days 4-8, 11-15, 18-22, and 25-29 and is active at 4 mg/kg per injection.

[10] = 72 hours, sulforhodamine B assay

Structure (SMILES): CCCCCCCC/C=C/CCCCCCCC(=O)OC[C@H]1O[C@@H](n2ccc(N)nc2=O)C(F)(F)[C@@H]1O [gemcitabine-5′-elaidic acid ester]
- activity compared with gemcitabine ([1]; 40 mg/kg vs gemcitabine 120 mg/kg): similar
- antitumor effect ([1]; NCR female mice, gemcitabine 120 mg/kg, gemcitabine-5′-elaidic acid ester 40 mg/kg): Significant antitumor effect
- combination effect with docetaxel [2, 10]: antagonistic
- combination effect with oxaliplatin [2, 10]: synergistic
- combination effect with pemetrexed ([2]; MTT assay): Antagonistic activity
- platinum adducts in DNA, oxaliplatin combined vs oxaliplatin alone [3]: but not in A549
- dFdCTP levels with inhibitor (DP) compared to without inhibitor ([4]; 10 μM): even increased
- time of maximum dFdCTP concentration ([4]; 10 μM, after exposure): reached at the last time point measured
- dFdCTP accumulation with blocked nucleoside transporters (FIG. 3) ([4]; transporters blocked): accumulates in cells despite blocking transporters
- tumor cell killing in relation to hENT1 [5]: kills tumor cells in vitro independent of hENT1
- retention of dFdC-TP concentration after washing away the drugs ([6]; 60 and 120 minutes in drug-free medium): retained at a similar level
- effect of dipyridamole on dFdC-TP accumulation ([6]; hENT inhibited by dipyridamole): even increased the concentration of triphosphates
- antitumor activity ([7]; Balb/C female mice, Co-26 cells in the spleen): significant antitumor activity
- hematological parameters [7]: moderate reduction
- mean survival in days and Treated/Control (T/C, %) over saline control [7]: significant increase
- antitumor activity [8]: significant antitumor activity
- antitumor activity ([9]; NMRI male mice, U373 intracerebrally, intraperitoneally Days 4-8, 11-15, 18-22, 25-29, 4 mg/kg per injection): active
- activity intracerebrally ([9]; after intraperitoneal administration): active intracerebrally
